The molecules below were run on cucumber powdery mildew fungus (Sphaerotheca fuliginea) (assay: Cucumber powdery mildew control test, foliar spray on cucumber (Test Examples 6, 12, Comparative Test Example)). Settings: 200 ppm, cucumber (SAGAMI HANJIRO), 8 days after inoculation.
Type: in vivo

With `CC(=NOCc1cccc(C)c1-n1nnn(C)c1=O)c1cccc(C(F)(F)F)c1` [1-methyl-4-{2-methyl-6-[1-(3-trifluoromethylphenyl)ethylideneaminooxymethyl]phenyl}-1,4-dihydrotetrazol-5-one] as the molecule, how does the “area of lesion spots relative to that on an untreated plant” value read?
The value was ≥ 70%.

For `CC(=NOCc1c(C)cccc1-n1nnn(C)c1=O)c1cccc(C(F)(F)F)c1` [1-{3-methyl-2-[1-(3-trifluoromethylphenyl)ethylideneaminooxymethyl]phenyl}-4-methyl-1,4-dihydrotetrazol-5-one], which “area of lesion spots relative to that on an untreated plant” value is on record?
The value was ≤ 30%.

Each molecule was assayed on diamondback moth (Plutella xylostella) (assay: Diamondback moth mortality test on sprayed cabbage (Test Example 15)). Settings: 120 h, 20 mL/cup sprayed on cabbage, second-instar larvae, 25° C., after 5 days.
Type: in vivo
Description: Each of formulations of the present compounds 6, 9, 26, 28, 31, 32, 33, 36, 71, 109, 114, 115, 125, and 149 obtained in Formulation Example 6 was diluted with water so that the concentration of the active ingredient is controlled to 500 ppm to prepare a test spraying solution. Meanwhile, the above test chemical solution was sprayed over three-leaf stage cabbage sowed in a polyethylene cup in the proportion of 20 mL/cup. After drying the chemical solution, stem and leaf portions were cut off and put in a 50 mL cup and five second-instar larvae of diamondback moth (Plutella xylostella) were released, and then the cup was capped. The cup was stored at 25° C. and, after 5 days, the number of surviving worms was counted and mortality was determined by the following equation. Mortality (%)=[(Number of dead insects)/(Number of tested insects)]×100

How did the mortality at 500 ppm turn out when `CC(=NOCc1c(-n2nnn(C)c2=O)cccc1C(F)(F)F)c1cccc(OC(F)(F)F)c1` [present compound 114, 1-{2-[1-(3-trifluoromethoxyphenyl)ethylideneaminooxymethyl]-3-trifluoromethylphenyl}-4-methyl-1,4-dihydrotetrazol-5-one] was run?
Its mortality at 500 ppm is ≥ 80%.

With `CC(=NOCc1c(C)cccc1-n1nnn(C)c1=O)c1ccccc1` [present compound 149, 1-[2-(1-phenylethylideneaminooxymethyl)-3-methylphenyl]-4-methyl-1,4-dihydrotetrazol-5-one] as the molecule, how does the mortality at 500 ppm read?
The mortality at 500 ppm was ≥ 80%.

`Cn1nnn(-c2cccc(Cl)c2CON=C(c2ccccc2)C(F)(F)F)c1=O` [present compound 26, 1-[3-chloro-2-(2,2,2-trifluoro-1-phenylethylideneaminooxymethyl)phenyl]-4-methyl-1,4-dihydrotetrazol-5-one] was tested. Which mortality at 500 ppm did it give?
The mortality at 500 ppm was ≥ 80%.

`CC(=NOCc1c(-n2nnn(C)c2=O)cccc1C(F)(F)F)c1ccc2c(c1)CCC2` [present compound 115, 1-[2-(1-indan-5-ylethylideneaminooxymethyl)-3-trifluoromethylphenyl]-4-methyl-1,4-dihydrotetrazol-5-one] was tested. Which mortality at 500 ppm did it give?
The mortality at 500 ppm was ≥ 80%.

How did the mortality at 500 ppm turn out when `CC(=NOCc1c(Cl)cccc1-n1nnn(C)c1=O)c1cccc([N+](=O)[O-])c1` [present compound 6, 1-{3-chloro-2-[1-(3-nitrophenyl)ethylideneaminooxymethyl]phenyl}-4-methyl-1,4-dihydrotetrazol-5-one] was run?
Its mortality at 500 ppm is ≥ 80%.

`CC(=NOCc1c(C)cccc1-n1nnn(C)c1=O)c1cccc(OC(F)(F)C(F)F)c1` [present compound 33, 1-(3-methyl-2-{1-[3-(1,1,2,2-tetrafluoroethoxyl)phenyl]ethylideneaminooxymethyl}phenyl)-4-methyl-1,4-dihydrotetrazol-5-one] was tested. Which mortality at 500 ppm did it give?
The mortality at 500 ppm was ≥ 80%.

For `CC(=NOCc1c(C2CC2)cccc1-n1nnn(C)c1=O)c1cccc2c1CCC2` [present compound 125, 1-[3-cyclopropyl-2-(1-indan-4-ylethylideneaminooxymethyl)phenyl]-4-methyl-1,4-dihydrotetrazol-5-one], which mortality at 500 ppm is on record?
Its mortality at 500 ppm is ≥ 80%.

`CC(=NOCc1c(C)cccc1-n1nnn(C)c1=O)c1cccc(C)c1` [present compound 71, 1-{3-methyl-2-[1-(3-methylphenyl)ethylideneaminooxymethyl]phenyl}-4-methyl-1,4-dihydrotetrazol-5-one] was tested. Which mortality at 500 ppm did it give?
The mortality at 500 ppm was ≥ 80%.

How did the mortality at 500 ppm turn out when `CC(=NOCc1c(C)cccc1-n1nnn(C)c1=O)c1cccc(Cl)c1` [present compound 31, 1-{3-methyl-2-[1-(3-chlorophenyl)ethylideneaminooxymethyl]phenyl}-4-methyl-1,4-dihydrotetrazol-5-one] was run?
The mortality at 500 ppm was ≥ 80%.

For `CC(=NOCc1c(Cl)cccc1-n1nnn(C)c1=O)c1cc(F)cc(F)c1` [present compound 28, 1-{3-chloro-2-[1-(3,5-difluorophenyl)ethylideneaminooxymethyl]phenyl}-4-methyl-1,4-dihydrotetrazol-5-one], which mortality at 500 ppm is on record?
The mortality at 500 ppm was ≥ 80%.

For `CC(=NOCc1c(C)cccc1-n1nnn(C)c1=O)c1ccc2ccccc2c1` [present compound 36, 1-[3-methyl-2-(1-naphthalen-2-ylethylideneaminooxymethyl)phenyl]-4-methyl-1,4-dihydrotetrazol-5-one], which mortality at 500 ppm is on record?
The mortality at 500 ppm was ≥ 80%.

How did the mortality at 500 ppm turn out when `CC(=NOCc1c(C)cccc1-n1nnn(C)c1=O)c1cccc(OC(F)(F)F)c1` [present compound 32, 1-{3-methyl-2-[1-(3-trifluoromethoxyphenyl)ethylideneaminooxymethyl]phenyl}-4-methyl-1,4-dihydrotetrazol-5-one] was run?
The mortality at 500 ppm was ≥ 80%.

`CC(=NOCc1c(C)cccc1-n1nnn(C)c1=O)c1cccc(N(C)C)c1` [present compound 109, 1-{2-[1-(3-dimethylaminophenyl)ethylideneaminooxymethyl]-3-methylphenyl}-4-methyl-1,4-dihydrotetrazol-5-one] was tested. Which mortality at 500 ppm did it give?
The mortality at 500 ppm was ≥ 80%.

With `CC(=NOCc1c(Cl)cccc1-n1nnn(C)c1=O)c1cccc(OC(F)(F)C(F)F)c1` [present compound 9, 1-(3-chloro-2-{1-[3-(1,1,2,2-tetrafluoroethoxyl)phenyl]ethylideneaminooxymethyl]phenyl}-4-methyl-1,4-dihydrotetrazol-5-one] as the molecule, how does the mortality at 500 ppm read?
The mortality at 500 ppm was ≥ 80%.
